Results on 35 compounds are retold here after US8871946B2, “Benzimidazole-4-carboxamide derivatives, their preparation methods, pharmaceutical compositions and their uses” (Zhejiang Medicine Co., Ltd. Xinchang Pharmaceutical Factory, priority 2009, dated 2014).

≈ marks a conversion by molar mass, not a printed value.

In this assay the test system is coxsackie B3 viruses. In words: Measures of anti-coxsackie B3 viruses activity of the compounds in Vero cells. Type of assay: cell-based. The settings on record: half inhibitory concentration for viruses. From the text: Measures of Anti-Coxsackie B3 Viruses Activity of the Compounds The products are applied for measures of antivirus properties of Vero cells. Refer to the results of Table 3: datum of anti-coxsackie B3 viruses activities of some compounds. […] IC50 indicates half inhibitory concentration for viruses. RBV indicates triazole nucleoside, is also called ribavirin, virazole.
As usually defined, the IC50 is the concentration that inhibits the measured activity by half. The low end stands for greater potency in that assay, the high end for weaker potency in that assay. For `O=C(NC(CO)C(O)c1ccc([N+](=O)[O-])cc1)c1cccc2[nH]c(-c3cccnn3)nc12` (centres unmarked) [(L)-2-(3-pyridazinyl)-1H-benzimidazole-4-[N-(1-hydroxymethyl-2-p-nitrophenylhydroxyethyl)]amide], the “IC50” value amounted to 5.8 µg/mL (≈ 13.4 µM).
The value for `Nc1ccc(NC(=O)c2cccc3[nH]c(-c4ncccn4)nc23)cc1` [2-(2-pyrimidinyl)-1H-benzimidazole-4-(N-p-aminophenyl)amide] was 9.8 µg/mL (≈ 29.7 µM).
To `Nc1ccc(NC(=O)c2cccc3[nH]c(N4CCNCC4)nc23)cc1` [2-N-piperazinyl-1H-benzimidazole-4-(N-p-aminophenyl)amide] belongs 6.3 µg/mL (≈ 18.7 µM); to `Cn1cccc1-c1nc2c(C(=O)Nc3ccccc3F)cccc2[nH]1` [2-(N-methyl-2-pyrrolyl)-1H-benzimidazole-4-(N-o-fluorophenyl)amide], 13.2 µg/mL (≈ 39.5 µM).
To `Nc1ncnc(Cl)c1-c1nc2c(C(=O)Nc3ccccc3O)cccc2[nH]1` [2-(4-amino-6-chloro-5-pyrimidinyl)-1H-benzimidazole-4-(N-o-hydroxyphenyl)amide] belongs 12.3 µg/mL (≈ 32.3 µM); to `O=C(NC(CO)C(O)c1ccc([N+](=O)[O-])cc1)c1cccc2[nH]c(-c3cnc(-c4ccccc4)nc3)nc12` (centres unmarked) [(L)-2-(2-phenyl-5-pyrimidinyl)-1H-benzimidazole-4-[N-(1-hydroxymethyl-2-p-nitrophenylhydroxyethyl)]amide], 12.0 µg/mL (≈ 23.5 µM); to `O=C(NC(CO)C(O)c1ccc([N+](=O)[O-])cc1)c1cccc2[nH]c(-c3nccs3)nc12` (centres unmarked) [(L)-2-thiazolyl-1H-benzimidazole-4-[N-(1-hydroxymethyl-2-p-nitrophenylhydroxyethyl)]amide], 11.2 µg/mL (≈ 25.5 µM).
For `Nc1ncnc(Cl)c1-c1nc2c(C(=O)Nc3ccccc3F)cccc2[nH]1` [2-(4-amino-6-chloro-5-pyrimidinyl)-1H-benzimidazole-4-(N-o-fluorophenyl)amide], the “IC50” value amounted to 11.3 µg/mL (≈ 29.5 µM).
To `Nc1ccc(NC(=O)c2cccc3[nH]c(-c4cnccn4)nc23)cc1` [2-(2-pyrazinyl)-1H-benzimidazole-4-(N-p-aminophenyl)amide] belongs 4.2 µg/mL (≈ 12.7 µM); to `O=C(Nc1ccccc1O)c1cccc2[nH]c(-c3cnccn3)nc12` [2-(2-pyrazinyl)-1H -benzimidazole-4-(N-o-hydroxyphenyl)amide], 3.5 µg/mL (≈ 10.6 µM); to `O=C(NC(CO)C(O)c1ccc([N+](=O)[O-])cc1)c1cccc2[nH]c(-c3ncccn3)nc12` (centres unmarked) [(L)-2-(2-pyrimidinyl)-1H-benzimidazole-4-[N-(1-hydroxymethyl-2-p-nitrophenylhydroxyethyl)]amide], 9.8 µg/mL (≈ 22.6 µM).
Consider `CN1CCN(C)C(c2nc3c(C(=O)Nc4ccc(N)cc4)cccc3[nH]2)C1` (centres unmarked) [2-(2-N-methyl-4-N-methylpiperazinyl)-1H-benzimidazole-4-(N-p-aminophenyl)amide], for which the 50% inhibitory concentration (IC50) came out at 3.5 µg/mL (≈ 9.6 µM). This IC50 is about 2.8-fold lower than that of the compound before.
To `O=C(NC(CO)C(O)c1ccc([N+](=O)[O-])cc1)c1cccc2[nH]c(-c3ccc([N+](=O)[O-])s3)nc12` (centres unmarked) [(L)-2-(5-nitro-2-thienyl)-1H-benzimidazole-4-[N-(1-hydroxymethyl-2-p-nitrophenylhydroxyethyl)]amide] belongs 10.69 µg/mL (≈ 22.1 µM).
With `O=C(NC(CO)C(O)c1ccc([N+](=O)[O-])cc1)c1cccc2[nH]c(-c3c[nH]c4ccccc34)nc12` [(L-)2-(3-indolyl)-1H-benzimidazole-4-[N-(1-hydroxymethyl-2-p-nitrophenylhydroxyethyl)]amide], the “IC50” value came out at 9.6 µg/mL (≈ 20.4 µM).
On to `O=C(Nc1ccccc1F)c1cccc2[nH]c(-c3ccc[nH]3)nc12` [2-(2-pyrrolyl)-1H-benzimidazole-4-(N-o-fluorophenyl)amide], for which the “IC50” value is 9.2 µg/mL (≈ 28.7 µM). The IC50 values of the last two compounds are within 1.5-fold of each other.
Take `O=C(Nc1ccccc1F)c1cccc2[nH]c(-c3cccs3)nc12` [2-thienyl-1H-benzimidazole-4-(N-(2-fluorophenyl)-amide]: the 50% inhibitory concentration (IC50) was determined as 1.06 µg/mL (≈ 3.14 µM). This IC50 is about 8.7-fold lower than that of the compound before.
To `COc1ccnc(-c2nc3c(C(=O)NC(CO)C(O)c4ccc([N+](=O)[O-])cc4)cccc3[nH]2)c1` (centres unmarked) [(L)-2-(4-methoxypyridyl)-1H-benzimidazole-4-[N-(1-hydroxymethyl-2-p-nitrophenylhydroxyethyl)]amide] belongs 6.3 µg/mL (≈ 13.6 µM); to `O=C(NC(CO)C(O)c1ccc([N+](=O)[O-])cc1)c1cccc2[nH]c(C3CCCCN3)nc12` (centres unmarked) [(L)-2-(2-piperidinyl)-1H-benzimidazole-4-[N-(1-hydroxymethyl-2-p-nitrophenylhydroxyethyl)]amide], 17.2 µg/mL (≈ 39.1 µM); to `CC(NC(=O)c1cccc2[nH]c(-c3ccccn3)nc12)C(O)c1ccc(Cl)cc1` (centres unmarked) [2-(2-pyridyl)-1H-benzimidazole-4-[N-(1-methyl-2-p-chlorophenylhydroxyethyl)]amide], 4.115 µg/mL (≈ 10.1 µM).
As for `CC(NC(=O)c1cccc2[nH]c(-c3cccnc3)nc12)C(O)c1ccc(Cl)cc1` (centres unmarked) [2-(3-pyridyl)-1H-benzimidazole-4-[N-(1-methyl-2-p-chlorophenylhydroxyethyl)]amide], the concentration for half-maximal inhibition (IC50) came out at 2.37 µg/mL (≈ 5.82 µM).
To `O=C(Nc1ccc(O)cc1)c1cccc2[nH]c(-c3ccc(O)c(O)c3O)nc12` [2-(2,3,4-trihydroxyphenyl)-1H-benzimidazole-4-(N-p-hydroxyphenyl)amide] belongs 11.2 µg/mL (≈ 29.7 µM); to `Cc1ccc(-c2nc3c(C(=O)Nc4ccccc4O)cccc3[nH]2)s1` [2-(5-methy-2-thienyl)-1H-benzimidazole-4-(N-o-hydroxyphenyl)amide], 18.5 µg/mL (≈ 52.9 µM); to `O=C(NC(CO)C(O)c1ccc([N+](=O)[O-])cc1)c1cccc2[nH]c(-c3ccc[nH]3)nc12` (centres unmarked) [(L)-2-(2-pyrrolyl)-1H-benzimidazole-4-[N-(1-hydroxymethyl-2-p-nitrophenylhydroxyethyl)]amide], 5.3 µg/mL (≈ 12.6 µM).
The value for `CC(NC(=O)c1cccc2[nH]c(-c3ccc([N+](=O)[O-])s3)nc12)C(O)c1ccc(Cl)cc1` (centres unmarked) [2-(5-nitro-2-thienyl)-1H-benzimidazole-4-(N-(1-methyl-2-p-chlorophenylhydroxyethyl))-amide] was 7.12 µg/mL (≈ 15.6 µM); that for `O=C(Nc1ccccc1O)c1cccc2[nH]c(-c3cccnn3)nc12` [2-(3-pyridazinyl)-1H-benzimidazole-4-(N-o-hydroxyphenyl)amide] was 15.2 µg/mL (≈ 45.9 µM); that for `O=C(Nc1ccccc1F)c1cccc2[nH]c(-c3cccnn3)nc12` [2-(3-pyridazinyl)-1H-benzimidazole-4-(N-o-fluorophenyl)amide] was 12.3 µg/mL (≈ 36.9 µM).
To `Nc1ccc(NC(=O)c2cccc3[nH]c(-c4cccnn4)nc23)cc1` [2-(3-pyridazinyl)-1H-benzimidazole-4-(N-p-aminophenyl)amide] belongs 10.2 µg/mL (≈ 30.9 µM).
As to `O=C(Nc1ccccc1F)c1cccc2[nH]c(-c3ncccn3)nc12` [2-(2-pyrimidinyl)-1H-benzimidazole-4-(N-o-fluorophenyl)amide], the “IC50” value worked out at 8.8 µg/mL (≈ 26.4 µM). This IC50 and that of the compound before are within 1.5-fold of each other.
The value for `Cc1nc(-c2nc3c(C(=O)NC(CO)C(O)c4ccc([N+](=O)[O-])cc4)cccc3[nH]2)sc1N` (centres unmarked) [(L)-2-(4-methyl-5-aminothiazolyl)-1H-benzimidazole-4-[N-(1-hydroxymethyl-2-p-nitrophenylhydroxyethyl)]amide] was 8.9 µg/mL (≈ 19 µM); that for `Nc1ccc(NC(=O)c2cccc3[nH]c(-c4cnc(-c5ccccc5)nc4)nc23)cc1` [2-(2-phenyl-5-pyrimidinyl)-1H-benzimidazole-4-(N-p-aminophenyl)amide] was 15.2 µg/mL (≈ 37.4 µM); that for `O=C(Nc1ccccc1F)c1cccc2[nH]c(-c3cnc(-c4ccccc4)nc3)nc12` [2-(2-phenyl-5-pyrimidinyl)-1H-benzimidazole-4-(N-o-fluorophenyl)amide] was 12.6 µg/mL (≈ 30.8 µM).
The value for `COc1cccc(-c2nc3c(C(=O)NC(CO)C(O)c4ccc([N+](=O)[O-])cc4)cccc3[nH]2)n1` (centres unmarked) [(L)-2-(6-methoxypyridyl)-1H-benzimidazole-4-[N-(1-hydroxymethyl-2-p-nitrophenylhydroxyethyl)]amide] was 11.2 µg/mL (≈ 24.2 µM).
As for `CC(NC(=O)c1cccc2[nH]c(-c3cccs3)nc12)C(O)c1ccc(Cl)cc1` (centres unmarked) [2-(2-thienyl)-1H-benzimidazole-4-[N-(1-methyl-2-p-chlorophenylhydroxyethyl)]amide], the “IC50” value came out at 5.30 µg/mL (≈ 12.9 µM).
The value for `Nc1ccc(-c2nc3c(C(=O)Nc4ccc(O)cc4)cccc3[nH]2)s1` [2-(5-amino-2-thienyl)-1H-benzimidazole-4-(N-p-hydroxyphenyl)amide] was 6.5 µg/mL (≈ 18.6 µM); that for `O=C(Nc1ccccc1F)c1cccc2[nH]c(-c3cnccn3)nc12` [2-(2-pyrazinyl)-1H-benzimidazole-4-(N-o-fluorophenyl)amide] was 6.5 µg/mL (≈ 19.5 µM).
